Assays:
Test in all cases: relative viability (nuclei count vs DMSO), 5 days (fraction); higher = more cells survive
Pictilisib + Linsitinib = compound: CS(=O)(=O)N1CCN(Cc2cc3nc(-c4cccc5[nH]ncc45)nc(N4CCOCC4)c3s2)CC1 [Pictilisib] + C[C@]1(O)C[C@@H](c2nc(-c3ccc4ccc(-c5ccccc5)nc4c3)c3c(N)nccn32)C1 [Linsitinib] (partner 1 µM)
Method in brief: (§1)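 Lung cancer cell lines in 1536-well plates got either a single drug or a fixed anchor-drug dose together with five library-drug doses (not always all listed) in √10 steps, by pin tool, on the day after seeding. Nuclei were counted after 5 days, and relative viability is the treated-to-vehicle ratio of nuclei counts. Values are medians of duplicate plates.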

Pictilisib + Olaparib = compound: CS(=O)(=O)N1CCN(Cc2cc3nc(-c4cccc5[nH]ncc45)nc(N4CCOCC4)c3s2)CC1 [Pictilisib] + O=C(c1cc(Cc2n[nH]c(=O)c3ccccc23)ccc1F)N1CCN(C(=O)C2CC2)CC1 [Olaparib] (partner 8 µM)
Method in brief: as §1

MK-2206 + Foretinib = compound: NC1(c2ccc(-c3nc4ccn5c(=O)[nH]nc5c4cc3-c3ccccc3)cc2)CCC1 [MK-2206] + COc1cc2c(Oc3ccc(NC(=O)C4(C(=O)Nc5ccc(F)cc5)CC4)cc3F)ccnc2cc1OCCCN1CCOCC1 [Foretinib] (partner 0.25 µM)
Method in brief: as §1

MK-2206 + Crizotinib = compound: NC1(c2ccc(-c3nc4ccn5c(=O)[nH]nc5c4cc3-c3ccccc3)cc2)CCC1 [MK-2206] + C[C@@H](Oc1cc(-c2cnn(C3CCNCC3)c2)cnc1N)c1c(Cl)ccc(F)c1Cl [Crizotinib] (partner 1 µM)
Method in brief: as §1

MK-2206 + AZD7762 = compound: NC1(c2ccc(-c3nc4ccn5c(=O)[nH]nc5c4cc3-c3ccccc3)cc2)CCC1 [MK-2206] + NC(=O)Nc1cc(-c2cccc(F)c2)sc1C(=O)N[C@H]1CCCNC1 [AZD7762] (partner 0.2 µM)
Method in brief: as §1

Cell Line | relative viability (Pictilisib + Linsitinib; first compound 0.02 µM) | relative viability (Pictilisib + Linsitinib; first compound 0.06325 µM) | relative viability (Pictilisib + Linsitinib; first compound 0.6325 µM) | relative viability (Pictilisib + Linsitinib; first compound 2 µM) | relative viability (Pictilisib + Olaparib; first compound 0.02 µM) | relative viability (Pictilisib + Olaparib; first compound 0.06325 µM) | relative viability (Pictilisib + Olaparib; first compound 0.6325 µM) | relative viability (Pictilisib + Olaparib; first compound 2 µM) | relative viability (MK-2206 + Foretinib; first compound 0.01 µM) | relative viability (MK-2206 + Foretinib; first compound 0.03162 µM) | relative viability (MK-2206 + Foretinib; first compound 0.3162 µM) | relative viability (MK-2206 + Foretinib; first compound 1 µM) | relative viability (MK-2206 + Crizotinib; first compound 0.01 µM) | relative viability (MK-2206 + Crizotinib; first compound 0.03162 µM) | relative viability (MK-2206 + Crizotinib; first compound 0.3162 µM) | relative viability (MK-2206 + Crizotinib; first compound 1 µM) | relative viability (MK-2206 + AZD7762; first compound 0.01 µM) | relative viability (MK-2206 + AZD7762; first compound 0.03162 µM) | relative viability (MK-2206 + AZD7762; first compound 0.3162 µM) | relative viability (MK-2206 + AZD7762; first compound 1 µM)
201T | 0.989 | 1.05 | 0.902 | 0.82 | 0.844 | 0.815 | 0.811 | 0.604 | 1.1 | 1.2 | 1.13 | 1.1 | 1.02 | 1.07 | 1.03 | 1.01 | 0.663 | 0.431 | 0.649 | 0.599
A-427 | 1.11 | 1.13 | 1.1 | 1.08 | 0.721 | 0.712 | 0.71 | 0.552 | 1.05 | 1.2 | 1.16 | 1.15 | 0.896 | 0.824 | 0.742 | 0.893 | 0.751 | 0.596 | 0.598 | 0.601
ABC-1 | 0.863 | 0.783 | 0.651 | 0.635 | 0.781 | 0.721 | 0.79 | 0.721 | 1.16 | 0.965 | 1.17 | 1.07 | 1.3 | 1.26 | 1.14 | 1.02 | 0.795 | 0.787 | 0.85 | 0.814
BEN | 0.948 | 0.891 | 0.947 | 0.683 | 1.03 | 1.11 | 1.02 | 0.978 | 0.687 | 0.76 | 0.709 | 0.606 | 0.906 | 0.956 | 0.913 | 0.908 | 0.729 | 0.621 | 0.713 | 0.601
CAL-12T | 0.986 | 0.732 | 0.807 | 0.424 | 0.761 | 0.785 | 0.754 | 0.523 | 1.07 | 0.962 | 1.15 | 1.19 | 0.546 | 0.688 | 0.488 | 0.491 | 0.617 | 0.455 | 0.716 | 0.664
ChaGo-K-1 |  |  |  |  | 0.44 | 0.381 | 0.5 | 0.332 | 0.969 | 0.974 | 0.922 | 0.93 | 1.08 | 1.11 | 0.961 | 1.14 | 0.875 | 0.796 | 0.858 | 0.93
EKVX | 1.02 | 0.948 | 0.749 | 0.429 | 0.962 | 0.828 | 0.777 | 0.406 | 0.877 | 0.673 | 0.855 | 0.387 | 0.897 | 1.1 | 0.858 | 0.868 | 0.738 | 0.886 | 0.751 | 0.704
EMC-BAC-2 | 0.809 | 0.787 | 0.716 | 0.538 | 0.513 | 0.52 | 0.407 | 0.334 | 1.06 | 1.01 | 0.905 | 0.885 | 0.714 | 0.729 | 0.781 | 0.745 | 1.06 | 1.17 | 1.02 | 0.852
EPLC-272H | 1.2 | 1.19 | 0.875 | 0.865 | 0.773 | 0.731 | 0.36 | 0.241 | 0.811 | 0.686 | 0.649 | 0.633 | 0.951 | 0.928 |  | 1.01 | 0.23 | 0.185 | 0.202 | 0.175
H3255 | 1.04 | 0.823 | 0.84 | 0.467 | 0.585 | 0.599 | 0.472 | 0.412 | 0.866 | 0.971 | 0.731 | 0.746 | 0.833 | 0.913 | 0.729 | 0.616 | 0.865 | 0.883 | 0.903 | 0.829
HARA | 0.979 | 1.06 | 0.803 | 0.353 | 0.837 | 0.97 | 0.92 | 0.358 | 0.944 | 0.951 | 0.929 | 0.809 | 1.11 | 1.08 | 0.986 | 0.979 | 0.0277 | 0.264 | 0.179 | 0.4
HCC-15 | 0.852 | 0.928 | 0.87 | 0.762 | 0.758 | 0.772 | 0.638 | 0.504 | 0.971 | 1.04 | 0.958 | 0.892 | 0.824 | 0.823 | 0.868 | 0.769 | 1.01 | 1.24 | 1.24 | 1.23
HCC-44 | 0.607 | 0.627 | 0.609 | 0.303 | 1.02 | 1.06 | 1.12 | 0.915 |  |  |  |  | 0.826 | 0.787 | 0.756 | 0.818 | 0.961 | 0.98 | 1.04 | 1.02
HCC-78 | 0.508 | 0.413 | 0.318 | 0.226 | 0.727 | 0.548 | 0.529 | 0.351 | 0.557 |  | 0.496 | 0.459 | 0.348 | 0.33 | 0.289 | 0.286 | 0.66 | 0.608 | 0.624 | 0.538
HCC-366 | 0.776 | 0.448 | 0.256 | 0.0873 | 0.401 | 0.357 | 0.199 | 0.077 | 0.924 | 1.03 | 0.869 | 0.975 | 0.48 | 0.532 | 0.452 | 0.442 | 0.26 | 0.204 | 0.244 | 0.18
HCC-827 | 0.938 | 1.01 | 1.03 | 0.711 | 0.795 | 0.512 | 0.433 | 0.284 | 1.13 | 1.05 | 0.945 | 0.984 | 0.966 | 0.874 | 0.977 | 0.98 | 0.325 | 0.184 | 0.227 | 0.186

Source: the supplement of paper PMC10307832
